Tests used:
Aldehyde oxidase [1] = target: T1, Aldehyde oxidase (Homo sapiens, UniProt Q06278); test: Mixed type inhibition of human AOX assessed as inhibitor dissociation constant by measuring changes in slope of the double reciprocal plot using phenanthridine as substrate by Michaelis-Menten analysis; conditions: read-out: Kis
T1 sequence (Q06278 whole entry): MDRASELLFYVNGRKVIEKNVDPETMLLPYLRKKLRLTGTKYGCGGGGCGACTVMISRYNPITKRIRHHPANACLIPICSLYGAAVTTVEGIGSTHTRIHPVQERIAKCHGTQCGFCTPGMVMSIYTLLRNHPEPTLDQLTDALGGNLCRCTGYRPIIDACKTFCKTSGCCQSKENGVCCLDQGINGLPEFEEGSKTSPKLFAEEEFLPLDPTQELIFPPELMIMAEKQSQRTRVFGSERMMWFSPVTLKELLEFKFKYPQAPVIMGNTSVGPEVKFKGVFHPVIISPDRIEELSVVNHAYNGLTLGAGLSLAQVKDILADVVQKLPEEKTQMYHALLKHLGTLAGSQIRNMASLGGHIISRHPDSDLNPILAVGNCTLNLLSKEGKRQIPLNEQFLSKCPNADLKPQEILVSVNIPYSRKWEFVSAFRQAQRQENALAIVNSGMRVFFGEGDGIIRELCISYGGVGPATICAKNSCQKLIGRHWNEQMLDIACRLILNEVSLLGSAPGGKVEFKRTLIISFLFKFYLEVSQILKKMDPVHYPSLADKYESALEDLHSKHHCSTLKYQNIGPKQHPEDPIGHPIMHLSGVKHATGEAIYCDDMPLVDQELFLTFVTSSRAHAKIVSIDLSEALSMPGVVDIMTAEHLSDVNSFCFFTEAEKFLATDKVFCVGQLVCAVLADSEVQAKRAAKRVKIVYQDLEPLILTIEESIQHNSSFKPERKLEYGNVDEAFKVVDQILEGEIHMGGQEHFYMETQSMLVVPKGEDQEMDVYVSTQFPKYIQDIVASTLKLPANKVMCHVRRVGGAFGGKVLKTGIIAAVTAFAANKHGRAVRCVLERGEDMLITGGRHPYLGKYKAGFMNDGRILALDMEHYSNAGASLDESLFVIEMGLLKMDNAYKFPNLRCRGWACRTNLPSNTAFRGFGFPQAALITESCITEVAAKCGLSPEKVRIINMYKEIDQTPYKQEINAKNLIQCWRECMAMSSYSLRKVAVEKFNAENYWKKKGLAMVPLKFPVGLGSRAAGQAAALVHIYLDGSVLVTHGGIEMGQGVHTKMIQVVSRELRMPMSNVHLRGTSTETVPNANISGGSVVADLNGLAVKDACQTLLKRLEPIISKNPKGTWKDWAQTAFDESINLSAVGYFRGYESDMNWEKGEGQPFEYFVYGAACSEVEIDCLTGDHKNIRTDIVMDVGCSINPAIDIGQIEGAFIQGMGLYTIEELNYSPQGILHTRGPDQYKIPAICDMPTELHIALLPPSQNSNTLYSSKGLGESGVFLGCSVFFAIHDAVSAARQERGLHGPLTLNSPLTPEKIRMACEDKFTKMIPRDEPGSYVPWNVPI

Aldehyde oxidase [2] = target: T1, Aldehyde oxidase; test: Mixed type inhibition of human AOX assessed as inhibitor dissociation constant by measuring changes in intercept of the double reciprocal plot using phenanthridine as substrate by Michaelis-Menten analysis; conditions: read-out: Kii
Aldehyde oxidase [3] = target: T1, Aldehyde oxidase; test: Noncompetitive type inhibition of human AOX assessed as inhibitor dissociation constant by measuring slope of the double reciprocal plot using phthalazine as substrate by Michaelis-Menten analysis; conditions: read-out: Kis
Aldehyde oxidase [4] = target: T1, Aldehyde oxidase; test: Noncompetitive type inhibition of human AOX assessed as inhibitor dissociation constant by measuring changes in intercept of the double reciprocal plot using phthalazine as substrate by Michaelis-Menten analysis; conditions: read-out: Kii

| SMILES | Ki (Aldehyde oxidase [1]) | Ki (Aldehyde oxidase [2]) | Ki (Aldehyde oxidase [3]) | Ki (Aldehyde oxidase [4]) |
| --- | --- | --- | --- | --- |
| N=C(N)c1ccccc1 [BENZAMIDINE] | 1240 µM | 1620 µM | – | – |
| CSc1ccc2c(c1)N(CCC1CCCCN1C)c1ccccc1S2 (centres undefined) [THIORIDAZINE] | – | – | 1.3 µM | 1.3 µM |

Reference: ChEMBL document CHEMBL5029156 (J Med Chem, 2021)
